Reference: ChEMBL document CHEMBL4828738, “Design, synthesis and evaluation of novel 5-phenylthiophene derivatives as potent fungicidal of Candida albicans and antifungal reagents of fluconazole-resistant fungi” (Eur J Med Chem, 2021)
Values after ≈ are worked out from the molar mass of the structure shown.

Tests used:
Candida parapsilosis = assay: Antifungal activity against Candida parapsilosis GIM2.190 assessed as fungal growth inhibition by CLSI protocol based method; format: functional; conditions: Lodderomyces parapsilosis
Candida albicans [1] = assay: Antifungal activity against Candida albicans ATCC SC5314 assessed as fungal growth inhibition by CLSI protocol based method; format: functional
Candida tropicalis = assay: Antifungal activity against Candida tropicalis CGMCC 2.3739 assessed as fungal growth inhibition by CLSI protocol based method; format: functional
Pichia kudriavzevii = assay: Antifungal activity against Candida krusei GIM2.1 assessed as fungal growth inhibition by CLSI protocol based method; format: functional
Nakaseomyces glabratus = assay: Antifungal activity against Candida glabrata assessed as fungal growth inhibition by CLSI protocol based method; format: functional
Cryptococcus neoformans = assay: Antifungal activity against Cryptococcus neoformans CGMCC2.3161 assessed as fungal growth inhibition by CLSI protocol based method; format: functional
Candida albicans [2] = assay: Antifungal activity against Candida albicans CPCC400616 assessed as fungal growth inhibition by CLSI protocol based method; format: functional
Candida albicans [3] = assay: Antifungal activity against fluconazole-resistant Candida albicans 103 assessed as fungal growth inhibition by CLSI protocol based method
Candida albicans [4] = assay: Antifungal activity against fluconazole-resistant Candida albicans 311 assessed as fungal growth inhibition by CLSI protocol based method
Candida albicans [5] = assay: Antifungal activity against fluconazole-resistant Candida albicans 904 assessed as fungal growth inhibition by CLSI protocol based method
Candida albicans [6] = assay: Antifungal activity against fluconazole-resistant Candida albicans 901 assessed as fungal growth inhibition by CLSI protocol based method
Candida albicans [7] = assay: Antifungal activity against fluconazole-resistant Candida albicans 632 assessed as fungal growth inhibition by CLSI protocol based method
Candida albicans [8] = assay: Antifungal activity against fluconazole-resistant Candida albicans 100 assessed as fungal growth inhibition by CLSI protocol based method

Row | Structure (SMILES) | MIC (Candida parapsilosis) [µg/mL] | MIC (Candida albicans [1]) [µg/mL] | MIC (Candida tropicalis) [µg/mL] | MIC (Pichia kudriavzevii) [µg/mL] | MIC (Nakaseomyces glabratus) [µg/mL] | MIC (Cryptococcus neoformans) [µg/mL] | MIC (Candida albicans [2]) [µg/mL] | MIC (Candida albicans [3]) [µg/mL] | MIC (Candida albicans [4]) [µg/mL] | MIC (Candida albicans [5]) [µg/mL] | MIC (Candida albicans [6]) [µg/mL] | MIC (Candida albicans [7]) [µg/mL] | MIC (Candida albicans [8]) [µg/mL]
1 | CCOc1ccc(-c2ccc(C(=O)NC(Cn3ccnc3)C(=O)c3ccccc3)s2)cc1 (centres undefined) | > 64 | > 64 | > 64 | > 64 | > 64 | > 64 | > 64 | – | – | – | – | – | –
2 | O=C(NC(Cn1ccnc1)C(=O)c1ccccc1)c1ccc(N2CCN(c3ccccc3)CC2)cc1 (centres undefined) | > 64 | > 64 | > 64 | > 64 | > 64 | > 64 | > 64 | – | – | – | – | – | –
3 | O=C(NC(Cn1ccnc1)C(=O)c1ccccc1)c1ccc(-c2ccc(OC(F)(F)F)cc2)s1 (centres undefined) | > 64 | 0.5 (≈ 1.03 µM) | 32 (≈ 65.9 µM) | > 64 | > 64 | > 64 | 16 (≈ 33 µM) | – | – | – | – | – | –
4 | O=C(NC(Cn1ccnc1)C(=O)c1ccc(OC(F)(F)F)cc1)c1ccc(-c2ccc(Cl)cc2)s1 (centres undefined) | > 64 | 32 (≈ 61.5 µM) | > 64 | > 64 | > 64 | > 64 | 32 (≈ 61.5 µM) | – | – | – | – | – | –
5 | O=C(NC(Cn1ccnc1)C(=O)c1ccccc1)c1nc2ccc(Br)cc2s1 (centres undefined) | > 64 | 32 (≈ 70.3 µM) | > 64 | > 64 | > 64 | > 64 | > 64 | – | – | – | – | – | –
6 | O=C(NC(Cn1ccnc1)C(=O)c1cccc(Cl)c1)c1ccc(-c2ccc(Cl)cc2)s1 (centres undefined) | 0.5 (≈ 1.06 µM) | < 0.03 | 1 (≈ 2.13 µM) | > 64 | 0.5 (≈ 1.06 µM) | > 64 | 0.25 (≈ 0.531 µM) | 4 (≈ 8.5 µM) | 4 (≈ 8.5 µM) | > 64 | 8 (≈ 17 µM) | > 64 | 2 (≈ 4.25 µM)
7 | O=C(NC(Cn1ccnc1)C(=O)c1ccccc1)c1ccc(-c2ccccc2)o1 (centres undefined) | > 64 | 16 (≈ 41.5 µM) | > 64 | > 64 | > 64 | > 64 | 16 (≈ 41.5 µM) | – | – | – | – | – | –
8 | O=C(NC(Cn1ccnc1)C(=O)c1ccccc1)c1ccc(-c2ccsc2)cc1 (centres undefined) | > 64 | 1 (≈ 2.49 µM) | 2 (≈ 4.98 µM) | 16 (≈ 39.9 µM) | > 64 | 8 (≈ 19.9 µM) | 2 (≈ 4.98 µM) | – | – | – | – | – | –
9 | Cc1ccc(-c2ccc(C(=O)NC(Cn3ccnc3)C(=O)c3ccccc3)s2)cc1 (centres undefined) | 8 (≈ 19.3 µM) | 0.125 (≈ 0.301 µM) | 2 (≈ 4.81 µM) | > 64 | > 64 | > 64 | 1 (≈ 2.41 µM) | – | – | – | – | – | –
10 | O=C(NC(Cn1ccnc1)C(=O)c1ccc(F)cc1F)c1ccc(-c2ccc(Cl)cc2)s1 (centres undefined) | > 64 | 0.5 (≈ 1.06 µM) | > 64 | > 64 | > 64 | 2 (≈ 4.24 µM) | > 64 | – | – | – | – | – | –
11 | O=C(NC(Cn1ccnc1)C(=O)c1ccccc1)c1ccc(-c2ccc(F)cc2)s1 (centres undefined) | > 64 | 1 (≈ 2.38 µM) | 32 (≈ 76.3 µM) | > 64 | > 64 | > 64 | 32 (≈ 76.3 µM) | – | – | – | – | – | –
12 | O=C(NC(Cn1ccnc1)C(=O)c1ccccc1)c1ccc(-c2ccc(F)cc2F)s1 (centres undefined) | > 64 | 8 (≈ 18.3 µM) | > 64 | > 64 | > 64 | > 64 | > 64 | – | – | – | – | – | –
13 | O=C(NC(Cn1ccnc1)C(=O)c1ccccc1)c1cc2ccccc2o1 (centres undefined) | > 64 | > 64 | > 64 | > 64 | > 64 | > 64 | > 64 | – | – | – | – | – | –
14 | N#Cc1ccc(-c2ccc(C(=O)NC(Cn3ccnc3)C(=O)c3ccccc3)s2)cc1 (centres undefined) | > 64 | > 64 | > 64 | > 64 | > 64 | > 64 | > 64 | – | – | – | – | – | –
